Test results from the NIST ThermoML archive (doi:10.1016/j.tca.2015.01.022).

Test: molar heat capacity at constant pressure
Details: 101.33 kPa, Glass, Small (less than 1 g) adiabatic calorimetry

CCCCn1cc[n+](C)c1.F[B-](F)(F)F [1-butyl-3-methylimidazolium tetrafluoroborate]
Details	molar heat capacity at constant pressure [J/K/mol]
5 K	1.47
5.16 K	1.62
5.39 K	1.822
5.67 K	2.094
5.96 K	2.397
6.28 K	2.762
6.64 K	3.192
7 K	3.657
7.36 K	4.172
7.73 K	4.709
8.11 K	5.283
8.49 K	5.896
8.87 K	6.54
9.26 K	7.211
9.64 K	7.915
10 K	8.59
10.03 K	8.641
10.52 K	9.597
11.13 K	10.83
11.75 K	12.13
12.36 K	13.44
12.97 K	14.81
13.59 K	16.22
14.22 K	17.7
14.85 K	19.2
15 K	19.58
15.58 K	20.98
16.44 K	23.16
17.29 K	25.28
18.15 K	27.41
19.01 K	29.55
19.88 K	31.75
20 K	32.08
21.08 K	34.8
22.63 K	38.75
24.2 K	42.72
25 K	44.7
25.76 K	46.64
27.21 K	50.17
28.7 K	53.74
30 K	56.8
30.28 K	57.41
32.02 K	61.38
33.93 K	65.51
35 K	67.76
35.84 K	69.47
37.75 K	73.26
39.66 K	76.94
40 K	77.68
41.67 K	80.75
43.78 K	84.66
45 K	86.86
45.89 K	88.43
48 K	92.13
50 K	95.33
50.12 K	95.61
52.24 K	99
54.36 K	102.2
56.48 K	105.3
58.61 K	108.4
60 K	110.5
60.75 K	111.5
62.88 K	114.5
65.01 K	117.4
67.14 K	120.3
69.28 K	123.1
70 K	124.2
71.52 K	126
73.86 K	129.1
76.21 K	132.1
78.57 K	135.1
78.59 K	135
80 K	136.7
80.92 K	137.8
81.08 K	138.2
83.28 K	140.7
83.48 K	140.7
85.56 K	143.1
85.91 K	143.3
88.1 K	145.9
88.36 K	146.1
90 K	148.1
90.56 K	148.7
90.83 K	148.8
93.04 K	151.5
93.31 K	151.6
95.54 K	154.3
95.81 K	154.3
98.06 K	156.9
98.33 K	156.9
100 K	158.7
100.58 K	159.4
100.87 K	159.6
103.12 K	162
103.41 K	162.3
105.68 K	164.7
105.97 K	164.9
108.24 K	167.2
108.53 K	167.4
110 K	169
110.81 K	169.8
111.11 K	170.1
113.39 K	172.7
113.69 K	172.7
115.97 K	175.1
116.27 K	175.4
118.56 K	177.8
118.87 K	178
120 K	179.2
121.16 K	180.5
121.47 K	180.7
123.76 K	183.1
124.08 K	183.2
126.37 K	185.5
126.68 K	185.8
128.98 K	188.1
129.3 K	188.4
130 K	189.1
131.59 K	190.7
131.91 K	191
133.42 K	192.4
134.2 K	193.3
134.53 K	193.6
136.1 K	195
136.82 K	195.9
137.15 K	196.2
138.71 K	197.7
139.43 K	198.3
139.77 K	198.7
140 K	198.9
141.33 K	200.2
142.05 K	201.1
142.38 K	201.3
143.94 K	202.8
144.67 K	203.6
145 K	203.9
146.55 K	205.4
147.29 K	206.3
